Reference: publication PMC11436758, “Computer-aided drug design to generate a unique antibiotic family” (Nature Communications, 2024)
In brackets after ≈: the same amount, converted by molar mass. Several values for one entry are separate records, joined by “and”; a condition that tells them apart may be missing. Equal entries are not always repeated.

How the values were obtained:
[1] = system: S. aureus (MRSA); assay: MIC, clinical and laboratory strains; type: cell-based
Method: (§1) The medium employed for the assay was Mueller Hinton II Broth (MHB II; Becton-Dickinson, Sparks, MD, USA). Agar plates used for the organisms were trypticase soy agar plus 5% sheep blood (BD; Sparks, MD, USA). MIC assay plates were prepared using the CLSI broth microdilution procedure. Automated liquid handlers (Multidrop 384, Biomek 2000 and Biomek FX) were used to conduct serial dilutions and liquid transfers. A standardized inoculum of each organism was prepared per CLSI methods. Suspensions were prepared to equal a 0.5 McFarland standard, followed by a 1:20 dilution in test media. The inocula were dispensed into sterile reservoirs divided by length (Beckman Colter) and the Biomek 2000 was used to inoculate the plates. Daughter plates were placed on the Biomek 2000 work surface in reverse orientation so that inoculation took place from low to high drug concentration. The Biomek 2000 delivered 10 μL of the diluted suspension into each well. These inoculations yielded a final cell concentration in the daughter plates of ~5 × 10^5 colony-forming units/mL in each well. The wells of the daughter plates ultimately contained 185 μL of broth, 5 μL of drug solution, and 10 μL of bacterial inoculum. Plates were covered with a sterile lid on the top plate, placed in plastic bags, and incubated at 35 °C for ~18 h. The microplates were viewed from the bottom using a plate viewer and the MIC was read. The MIC was recorded as the lowest concentration of drug that inhibited visible growth of the organism.

[2] = system: S. epidermidis (VISE); assay: MIC, clinical and laboratory strains; type: cell-based
Method: as §1

[3] = molecular target: T1, AcpS^N82/81A (Escherichia coli, UniProt P24224, N81A); assay: Inhibition of purified AcpS site-directed mutant by DNM0547; type: biochemical, E. coli; conditions: for AcpS rate nM/min, Mean / AcpS rate: Suppl Fig 3, [AcpS_N81A] 5nM; for AcpS rate: replicates
T1 construct: 6x-His (C); made in house
T1 sequence (P24224 whole entry N81A): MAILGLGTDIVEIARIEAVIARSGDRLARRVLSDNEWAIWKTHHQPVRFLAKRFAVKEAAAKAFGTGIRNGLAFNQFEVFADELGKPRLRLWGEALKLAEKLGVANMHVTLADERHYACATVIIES

CC(C)c1cc(Cl)ccc1-c1cc(-c2nnn[nH]2)c(-c2ccc(Cl)cc2C(C)C)s1 [DNM0547]
MIC ([1]; S. aureus (MRSA) 5702): 1 µg/mL (≈ 2.19 µM) | MIC ([1]; S. aureus (MRSA) 5999): 1 µg/mL (≈ 2.19 µM) | MIC ([1]; S. aureus (MRSA) 6165): 1 µg/mL (≈ 2.19 µM) | MIC ([1]; S. aureus (MRSA) 6169): 1 µg/mL (≈ 2.19 µM) | MIC ([1]; S. aureus (MRSA) 6174): 1 µg/mL (≈ 2.19 µM) | MIC ([1]; S. aureus (MRSA) 6311): 1 µg/mL (≈ 2.19 µM) | MIC ([1]; S. aureus (MRSA) 6312): 2 µg/mL (≈ 4.37 µM) | MIC ([1]; S. aureus (MRSA) 6313): 1 µg/mL (≈ 2.19 µM) | MIC ([1]; S. aureus (MRSA) 6315): 1 µg/mL (≈ 2.19 µM) | MIC ([1]; S. aureus (MRSA) 6320): 1 µg/mL (≈ 2.19 µM) | MIC ([1]; S. aureus (MRSA) 6498): 2 µg/mL (≈ 4.37 µM) | MIC ([1]; S. aureus (MRSA) 6501): 2 µg/mL (≈ 4.37 µM) | MIC ([1]; S. aureus (MRSA) 6505): 1 µg/mL (≈ 2.19 µM) | MIC ([1]; S. aureus (MRSA) 6506): 2 µg/mL (≈ 4.37 µM) | MIC ([1]; S. aureus (MRSA) NRS382/2119): 1 µg/mL (≈ 2.19 µM) | MIC ([1]; S. aureus (MRSA) NRS383/2120): 1 µg/mL (≈ 2.19 µM) | MIC ([1]; S. aureus (MRSA) NRS384/2011): 2 µg/mL (≈ 4.37 µM) | MIC ([2]; S. epidermidis (VISE) 2020): 8 µg/mL (≈ 17.5 µM) | MIC ([2]; S. epidermidis (VISE) 2021): 1 µg/mL (≈ 2.19 µM) | MIC ([2]; S. epidermidis (VISE) 2022): 2 µg/mL (≈ 4.37 µM) | MIC ([2]; S. epidermidis (VISE) 2023): 4 µg/mL (≈ 8.74 µM) | MIC ([2]; S. epidermidis (VISE) 2024): 32 µg/mL (≈ 70 µM) | MIC ([2]; S. epidermidis (VISE) 2025): 4 µg/mL (≈ 8.74 µM) | IC50 [3]: 5 µM | AcpS rate nM/min, Mean ([3]; Drug Conc 1 uM): 7.81 nM/min | AcpS rate ([3]; Drug Conc 1 uM): 7.96 nM/min and 7.81 nM/min and 7.64 nM/min | AcpS rate nM/min, Mean ([3]; Drug Conc 2 uM): 6.86 nM/min | AcpS rate ([3]; Drug Conc 2 uM): 6.91 nM/min and 7.01 nM/min and 6.66 nM/min | AcpS rate nM/min, Mean ([3]; Drug Conc 4 uM): 4.72 nM/min | AcpS rate ([3]; Drug Conc 4 uM): 4.74 nM/min and 4.76 nM/min and 4.66 nM/min | AcpS rate nM/min, Mean ([3]; Drug Conc 8 uM): 3.23 nM/min | AcpS rate ([3]; Drug Conc 8 uM): 2.93 nM/min and 3.30 nM/min and 3.44 nM/min | AcpS rate nM/min, Mean ([3]; Drug Conc 16 uM): 2.83 nM/min | AcpS rate ([3]; Drug Conc 16 uM): 3.20 nM/min and 2.39 nM/min and 2.90 nM/min | AcpS rate nM/min, Mean ([3]; Drug Conc 32 uM): 1.69 nM/min | AcpS rate ([3]; Drug Conc 32 uM): 1.65 nM/min and 1.74 nM/min and 1.68 nM/min | AcpS rate nM/min, Mean ([3]; Drug Conc 64 uM): 1.60 nM/min | AcpS rate ([3]; Drug Conc 64 uM): 1.52 nM/min and 1.63 nM/min and 1.65 nM/min | AcpS rate nM/min, Mean ([3]; Drug Conc 128 uM): 1.34 nM/min | AcpS rate ([3]; Drug Conc 128 uM): 1.38 nM/min and 1.44 nM/min and 1.20 nM/min | remaining activity at 1 µM ([3]; read-out: % of untreated, Suppl Fig 3, [AcpS_N81A] 5nM, Drug Conc 1 uM, replicates): 105% | remaining activity at 2 µM ([3]; read-out: % of untreated, Suppl Fig 3, [AcpS_N81A] 5nM, Drug Conc 2 uM, replicates): 90.9% | remaining activity at 4 µM ([3]; read-out: % of untreated, Suppl Fig 3, [AcpS_N81A] 5nM, Drug Conc 4 uM, replicates): 62.4% | remaining activity at 8 µM ([3]; read-out: % of untreated, Suppl Fig 3, [AcpS_N81A] 5nM, Drug Conc 8 uM, replicates): 38.5% | remaining activity at 16 µM ([3]; read-out: % of untreated, Suppl Fig 3, [AcpS_N81A] 5nM, Drug Conc 16 uM, replicates): 42.1% | remaining activity at 32 µM ([3]; read-out: % of untreated, Suppl Fig 3, [AcpS_N81A] 5nM, Drug Conc 32 uM, replicates): 21.7% | remaining activity at 64 µM ([3]; read-out: % of untreated, Suppl Fig 3, [AcpS_N81A] 5nM, Drug Conc 64 uM, replicates): 20% | remaining activity at 128 µM ([3]; read-out: % of untreated, Suppl Fig 3, [AcpS_N81A] 5nM, Drug Conc 128 uM, replicates): 18.1%
